Test results from US20240400615A1, “PEPTIDE HAVING ANTI-OBESITY ACTIVITY AND USES THEREOF” (CAREGEN CO., LTD., priority 2021, published 2024).

Key:
Type in all cases: cell-based
[1] = test system: HSL; assay: RT-PCR of lipolysis-related gene HSL in adipocytes; details: 3T3-L1 adipocytes, 5 μM and 50 μM peptide, 72 hours, GAPDH internal control
Experimental: (§1) First, in order to differentiate pre-adipocytes into adipocytes, pre-adipocytes and 3T3-L1 cells purchased from the American Type Culture Collection (ATCC) were cultured in DMEM including 2% fetal bovine serum (FBS). In order to differentiate 3T3-L1 cells into adipocytes, the culture was dispensed into a 12-well plate at a density of 1×10^5 cells/well, and 2 days after the time-point of achieving the confluent growth (day 0), the culture medium was replaced with DMEM medium including 10% FBS, 10 μg/mL insulin, 0.5 mM isobutylmethylxanthine (IBMX)(Sigma, USA), and 1 μM dexamethasone (Sigma. USA), and cultured. After 2 days (day 2), the culture medium was replaced with DMEM medium including 10% FBS and 10 μg/mL insulin and cultured, and 3 days thereafter (day 5), the culture medium was replaced with a medium including only 10% FBS Two days thereafter (day 7), the cells were named 3T3-L1 adipocytes and cultured under the conditions of 37° C., 5% CO2 environment. The adipocytes which were induced to differentiate for 10 days were used in subsequent experiments.
(§2) In adipocytes, in order to confirm whether the peptide of the present invention has the effect of activating the lipolysis-promoting cell signaling pathway. mRNA expression levels of HSL, ATGL, and perilipin1 genes associated with lipolysis promotion were examined. […]

[2] = test system: ATGL; assay: RT-PCR of lipolysis-related gene ATGL in adipocytes; details: 3T3-L1 adipocytes, 5 μM and 50 μM peptide, 72 hours, GAPDH internal control
Experimental: as §1, §2

[3] = test system: perilipin1; assay: RT-PCR of lipolysis-related gene perilipin1 in adipocytes; details: 3T3-L1 adipocytes, 5 μM and 50 μM peptide, 72 hours, GAPDH internal control
Experimental: as §1, §2

[4] = test system: pHSL; assay: Western blot of pHSL in adipocytes; details: 3T3-L1 adipocytes, 5 μM and 50 μM peptide, 1 hour, Western blot with anti-pHSL antibody
Experimental: as §1, with “The adipocytes which were induced to differentiate for 10 days were used in subsequent experiments.” left out
Specifically, the adipocytes differentiated in Preparation Example 1 were treated with 5 μM and 50 μM of the peptide of SEQ ID NO: 1, and after 1 hour, the cells were recovered and treated with a cell lysis buffer to obtain a lysate. Then, the protein was quantified and subjected to Western blotting using an anti-pHSL antibody (Cell Signaling Technology (CST), USA).

[5] = test system: 3T3-L1 adipocytes; assay: Glycerol colorimetric assay, free glycerol released from adipocytes; details: 5 μM and 50 μM peptide, 48 hours, supernatant
Experimental: as §1, with “The adipocytes which were induced to differentiate for 10 days were used in subsequent experiments.” left out
Specifically, adipocytes differentiated in Preparation Example 1 were treated with the peptide of SEQ ID NO: 1 at concentrations of 5 μM and 50 μM, and treated with 20 nM of TNFα, as a positive control, followed by culturing for 48 hours. After obtaining the supernatant, the amount of glycerol was measured using a glycerol colorimetric assay kit (Cayman Chemical, USA).

[6] = test system: PGC1α; assay: RT-PCR of thermogenesis-related gene PGC1α in adipocytes; details: 3T3-L1 adipocytes, 5 μM and 50 μM peptide, 72 hours, GAPDH internal control
Experimental: as §1
(§3) In order to confirm whether the peptide of the present invention has the effect of preventing or treating obesity, the levels of mRNA expression of PGC1α1, Tbx1, FGF21, and UCP1, which are thermogenesis-related genes in brown adipocytes, were examined. […]

[7] = test system: Tbx1; assay: RT-PCR of thermogenesis-related gene Tbx1 in adipocytes; details: 3T3-L1 adipocytes, 5 μM and 50 μM peptide, 72 hours, GAPDH internal control
Experimental: as §1, §3

[8] = test system: FGF21; assay: RT-PCR of thermogenesis-related gene FGF21 in adipocytes; details: 3T3-L1 adipocytes, 5 μM and 50 μM peptide, 72 hours, GAPDH internal control
Experimental: as §1, §3

[9] = test system: UCP1; assay: RT-PCR of thermogenesis-related gene UCP1 in adipocytes; details: 3T3-L1 adipocytes, 5 μM and 50 μM peptide, 72 hours, GAPDH internal control
Experimental: as §1, §3

[10] = test system: PRDM16; assay: Western blot of thermogenesis-related protein PRDM16 in adipocytes; details: 3T3-L1 adipocytes, 5 μM and 50 μM peptide, 24 hours
Experimental: as §1, with “The adipocytes which were induced to differentiate for 10 days were used in subsequent experiments.” left out
(§4) Specifically, the adipocytes obtained in Preparation Example 1 were treated with 5 μM and 50 μM of the peptide of SEQ ID NO: 1, respectively. […] Then, the protein was quantified and subjected to Western blotting was performed using an anti-PRDM16 antibody (Cell signaling technology (CST), USA) and an anti-UCP1 antibody (Abcam, England).

[11] = test system: UCP1; assay: Western blot of thermogenesis-related protein UCP1 in adipocytes; details: 3T3-L1 adipocytes, 5 μM and 50 μM peptide, 24 hours
Experimental: as §1, with “The adipocytes which were induced to differentiate for 10 days were used in subsequent experiments.” left out
as §4

**Q.** Which “mRNA expression of HSL gene” value [1] does the source give for DYNMKWIHVY [SEQ ID NO: 1] here?
**A.** increased

**Q.** What about the “mRNA expression of ATGL gene” value [2] of the same sequence?
**A.** increased

**Q.** And the “mRNA expression of perilipin1 gene” value [3]?
**A.** increased

**Q.** What about the “phosphorylation of HSL protein” value [4] of the same sequence?
**A.** increased

**Q.** And the “amount of glycerol released” value [5]?
**A.** increased in a concentration-dependent manner

**Q.** And the “mRNA expression of PGC1α gene” value [6]?
**A.** increased

**Q.** And the “mRNA expression of Tbx1 gene” value [7]?
**A.** increased

**Q.** What about the “mRNA expression of FGF21 gene” value [8] of the same sequence?
**A.** increased

**Q.** And the “mRNA expression of UCP1 gene” value [9]?
**A.** increased

**Q.** And the “expression of PRDM16 protein” value [10]?
**A.** increased

**Q.** And the “expression of UCP1 protein” value [11]?
**A.** increased
